From patent US10703755B2, “Substituted purine derivative” (SUMITOMO DAINIPPON PHARMA CO., LTD., priority 2016, dated 2020)

Target: human TLR7 (Homo sapiens (Human), UniProt Q9NYK1)
Assay: Test for evaluating the inhibition of the activation of human TLR7 (SEAP reporter, TLR7/NF-κB/SEAPorter HEK293 cell)
Type: cell-based
Settings: R-848 200 nmol/L; for IC50: SEAP reporter; for inhibitory effect against TLR7 in the test for evaluating inhibition of the activation of TLR7: SEAP activity, result in words
How it was run: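 The readout is secreted alkaline phosphatase under NF-κB response-element control in TLR7/NF-κB/SEAPorter HEK293 cells, which stably express full-length human TLR7. Cells were plated at 5×10^4 per well and grown overnight at 37° C, 5% CO2, in DMEM/10% FBS/blasticidin.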

human TLR7, sequence (Q9NYK1 27-1049): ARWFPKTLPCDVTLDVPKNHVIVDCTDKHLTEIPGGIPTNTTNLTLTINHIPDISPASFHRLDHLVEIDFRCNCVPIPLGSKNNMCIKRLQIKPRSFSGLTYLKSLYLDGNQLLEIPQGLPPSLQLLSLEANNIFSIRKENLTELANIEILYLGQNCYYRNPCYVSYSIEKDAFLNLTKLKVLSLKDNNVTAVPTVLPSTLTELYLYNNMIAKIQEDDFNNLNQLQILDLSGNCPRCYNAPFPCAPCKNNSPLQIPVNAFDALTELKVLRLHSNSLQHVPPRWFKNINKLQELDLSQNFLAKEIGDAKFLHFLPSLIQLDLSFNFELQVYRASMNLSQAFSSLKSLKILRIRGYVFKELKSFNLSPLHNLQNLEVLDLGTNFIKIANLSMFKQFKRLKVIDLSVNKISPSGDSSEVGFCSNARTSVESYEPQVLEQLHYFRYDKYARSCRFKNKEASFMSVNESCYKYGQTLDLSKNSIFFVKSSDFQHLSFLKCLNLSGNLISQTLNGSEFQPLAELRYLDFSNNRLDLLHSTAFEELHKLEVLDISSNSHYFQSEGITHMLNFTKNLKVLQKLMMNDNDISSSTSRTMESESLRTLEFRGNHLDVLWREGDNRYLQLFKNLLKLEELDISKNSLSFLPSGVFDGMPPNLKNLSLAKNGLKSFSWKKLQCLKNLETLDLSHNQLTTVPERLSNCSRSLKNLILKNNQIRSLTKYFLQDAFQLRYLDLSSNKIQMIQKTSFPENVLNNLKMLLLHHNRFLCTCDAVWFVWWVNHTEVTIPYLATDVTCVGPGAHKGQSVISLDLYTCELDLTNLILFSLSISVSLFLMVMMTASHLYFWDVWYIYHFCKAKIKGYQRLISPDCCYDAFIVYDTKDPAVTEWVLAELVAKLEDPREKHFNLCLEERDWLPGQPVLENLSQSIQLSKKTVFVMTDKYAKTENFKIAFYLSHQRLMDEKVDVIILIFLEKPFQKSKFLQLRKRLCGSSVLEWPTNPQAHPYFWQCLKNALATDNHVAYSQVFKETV

| Structure (SMILES) | IC50 | inhibitory effect against TLR7 in the test for evaluating inhibition of the activation of TLR7 |
| --- | --- | --- |
| CCCOc1nc(C)c2nc(-c3cncc(C)c3)n(Cc3ccc(O[C@@H]4CN5CCC4CC5)nc3)c2n1 [Example 76] | 400 nM | – |
| COc1nc(C)c2nc(-c3cncc(F)c3)n(Cc3ccc(O[C@H]4CN5CCC4CC5)nc3)c2n1 [Example 70] | 110 nM | potent inhibitory effect against TLR7 |
| COc1nc(C)c2nc(-c3cncnc3)n(Cc3ccc(C4CN5CCC4CC5)cc3F)c2n1 (stereo not drawn) [Example 346] | 19 nM | potent inhibitory effect against TLR7 |
| COc1nc(C)c2nc(-c3cccnc3)n(Cc3ccc(CN4C[C@@H]5C[C@H]4CN5C)cc3F)c2n1 [Example 310, 9-(2-fluoro-4-{[(1S,4S)-5-methyl-2,5-diazabicyclo[2.2.1]hept-2-yl]methyl}benzyl)-2-methoxy-6-methyl-8-(pyridin-3-yl)-9H-purine] | 28 nM | potent inhibitory effect against TLR7 |
| CCOc1nc(N)c2nc(-c3cncc(F)c3)n(Cc3ccc(CN4C[C@@H]5C[C@H]4CN5CC)cc3)c2n1 [Example 128] | 19 nM | potent inhibitory effect against TLR7 |
| COc1nc(C)c2nc(-c3cncc(F)c3)n(Cc3ccc(C4CN5CCC4CC5)cc3F)c2n1 (single isomer, unassigned) [Example 392, 9-[4-(1-azabicyclo[2.2.2]oct-3-yl)-2-fluorobenzyl]-8-(5-fluoropyridin-3-yl)-2-methoxy-6-methyl-9H-purine] | 13 nM | – |
| CCOc1nc(C)c2nc(-c3cncc(F)c3)n(Cc3cnc(Cl)c(F)c3)c2n1 [Example 338] | 667 nM | – |
| CCCCOc1nc(N)c2nc(-c3cncc(CO)c3)n(Cc3ccccc3)c2n1 [Example 20] | 22500 nM | – |
| CCOc1nc(N)c2nc(-c3cncc(F)c3)n(Cc3ccc(OC4CCN(C)CC4)nc3)c2n1 [Example 60] | 230 nM | – |
| CCOc1nc(C)c2nc(-c3cncc(F)c3)n(Cc3ccc(C4CN5CCC4CC5)cc3OC)c2n1 (stereo not drawn) [Example 372, 9-[4-(1-azabicyclo[2.2.2]oct-3-yl)-2-methoxybenzyl]-2-ethoxy-8-(5-fluoropyridin-3-yl)-6-methyl-9H-purine] | 11 nM | potent inhibitory effect against TLR7 |
| CCOc1nc(C)c2nc(-c3cncc(F)c3)n(Cc3cnn(C4CCN(C)C4)c3)c2n1 (stereo not drawn) [Example 164] | 170 nM | – |
| COc1nc(C)c2nc(-c3cncc(F)c3)n(Cc3ccc(O)cc3F)c2n1 [Example 404, 3-Fluoro-4-{[8-(5-fluoropyridin-3-yl)-2-methoxy-6-methyl-9H-purin-9-yl]methyl}phenol] | 846 nM | – |
| COc1nc(C)c2nc(-c3cncc(C)c3)n(Cc3ccc(C4CN5CCC4CC5)cc3F)c2n1 (stereo not drawn) [Example 305, 9-[4-(1-azabicyclo[2.2.2]oct-3-yl)-2-fluorobenzyl]-2-methoxy-6-methyl-8-(5-methylpyridin-3-yl)-9H-purine] | 5 nM | potent inhibitory effect against TLR7 |
| COc1cncc(-c2nc3c(C)nc(OC)nc3n2Cc2ccc(C3CN4CCC3CC4)cc2F)c1 (stereo not drawn) [Example 302] | 67 nM | potent inhibitory effect against TLR7 |
| COc1nc(C)c2nc(-c3cccnn3)n(Cc3ccc(OC4CN5CCC4CC5)cc3F)c2n1 (stereo not drawn) [Example 441] | 176 nM | – |
| CCOc1nc(N)c2nc(-c3cncc(F)c3)n(Cc3ccc(CO)cc3)c2n1 [Example 77, (4-{[6-Amino-2-ethoxy-8-(5-fluoropyridin-3-yl)-9H-purin-9-yl]methyl}phenyl)methanol] | 2400 nM | – |
| CCOc1nc(C)c2nc(-c3cncc(F)c3)n(Cc3cc(OC)c(C4CN5CCC4CC5)cc3F)c2n1 (stereo not drawn) [Example 317] | 1610 nM | – |
| CCOc1nc(C)c2nc(-c3cncc(F)c3)n(Cc3ccc(CN4[C@@H]5CC[C@H]4CN(C)C5)cc3)c2n1 [Example 265] | 57 nM | potent inhibitory effect against TLR7 |
| CCOc1nc(C)c2nc(-c3cncc(F)c3)n(Cc3ccc(C4CN5CCC4CC5)cc3OCC)c2n1 (stereo not drawn) [Example 376] | 84 nM | potent inhibitory effect against TLR7 |
| Cc1nc(O)nc2c1nc(-c1cncc(F)c1)n2Cc1ccc(C2=CN3CCC2CC3)c(F)c1 [Example 358] | 18 nM | – |
| CCOc1nc(C)c2nc(-c3cncc(F)c3)n(Cc3ccc(C4CN5CCC4CC5)nc3C(F)(F)F)c2n1 (stereo not drawn) [Example 381] | 1390 nM | – |
| CCCCOc1nc(N)c2nc(-c3ccccc3)n(Cc3cccnc3)c2n1 [Example 9] | 12800 nM | – |
| COc1nc(C)c2nc(-c3cccnc3)n(Cc3ccc(OC4CC5CCC(C4)N5C)cc3F)c2n1 (stereo not drawn) [Example 297, 9-(2-fluoro-4-{[(3-endo)-8-methyl-8-azabicyclo[3.2.1]oct-3-yl]oxy}benzyl)-2-methoxy-6-methyl-8-(pyridin-3-yl)-9H-purine] | 50 nM | potent inhibitory effect against TLR7 |
| CCOc1nc(C)c2nc(-c3cncc(F)c3)n(Cc3ccc(O[C@@H]4CN5CCC4CC5)nc3)c2n1 [Example 71, 9-({6-[(3S)-1-azabicyclo[2.2.2]oct-3-yloxy]pyridin-3-yl}methyl)-2-ethoxy-8-(5-fluoropyridin-3-yl)-6-methyl-9H-purine] | 58 nM | potent inhibitory effect against TLR7 |
| CCOc1nc(C)c2nc(-c3cncc(F)c3)n(Cc3ccc(O[C@H]4CN5CCC4CC5)nc3)c2n1 [Example 72] | 81 nM | potent inhibitory effect against TLR7 |
| CCN1C2CCC1CC(Oc1ccc(Cn3c(-c4cncc(C#N)c4)nc4c(C)nc(OC)nc43)c(F)c1)C2 (stereo not drawn) [Example 296, 5-[9-(4-{[(3-endo)-8-ethyl-8-azabicyclo[3.2.1]oct-3-yl]oxy}-2-fluorobenzyl)-2-methoxy-6-methyl-9H-purin-8-yl]pyridine-3-carbonitrile] | 21 nM | potent inhibitory effect against TLR7 |
| CCOc1nc(N)c2nc(-c3cncc(C(F)F)c3)n(Cc3ccccc3)c2n1 [Example 30] | 2800 nM | – |
| CCOc1nc(C)c2nc(-c3cncc(F)c3)n(Cc3ccc(OCC4CN5CCC4CC5)nc3)c2n1 (stereo not drawn) [Example 73] | 160 nM | – |
| CCOc1nc(C)c2nc(-c3cncc(F)c3)n(Cc3ccc(C4CN5CCC4CC5)nc3OC)c2n1 (stereo not drawn) [Example 327] | 23 nM | potent inhibitory effect against TLR7 |

More lines, main results first:

| IC50 | Structure (SMILES) | inhibitory effect against TLR7 in the test for evaluating inhibition of the activation of TLR7 |
| --- | --- | --- |
| 300 nM | COCCOc1nc(C)c2nc(-c3cncc(F)c3)n(Cc3ccc(CN4CCOCC4)cc3)c2n1 [Example 114] | – |
| 1720 nM | CCOc1nc(C)c2nc(-c3cncc(F)c3)n(Cc3ccc(C4=CN5CCC4CC5)nc3C(F)(F)F)c2n1 [Example 360] | – |
| 16 nM | COc1nc(C)c2nc(-c3cncc(F)c3)n(Cc3ccc(O[C@@H]4CCN(C)C4)cc3F)c2n1 [Example 415, 9-(2-fluoro-4-{[(3R)-1-methylpyrrolidin-3-yl]oxy}benzyl)-8-(5-fluoropyridin-3-yl)-2-methoxy-6-methyl-9H-purine] | potent inhibitory effect against TLR7 |
| 16200 nM | CCCCOc1nc(N)c2nc(-c3ccc(N(C)C)cc3)n(Cc3ccccc3)c2n1 [Example 179] | – |
| 550 nM | CCOc1nc(N)c2nc(-c3cncc(F)c3)n(Cc3ccc(N4CCN(C)CC4)nc3)c2n1 [Example 65] | – |
| 100 nM | CCOc1nc(C)c2nc(-c3cncc(F)c3)n(Cc3cnn(CC4COCCN4C)c3)c2n1 (stereo not drawn) [Example 274] | – |
| 18 nM | COc1nc(C)c2nc(-c3cncc(F)c3)n(Cc3ccc(C4CCNC4)cc3F)c2n1 (stereo not drawn) [Example 435] | – |
| 1700 nM | CCOc1nc(N)c2nc(-c3cncc(F)c3)n(Cc3ccc(C(=O)NCCN4CCCC4)cc3)c2n1 [Example 146] | – |
| 2700 nM | CCCCOc1nc(N)c2nc(-c3cncc(C)c3)n(Cc3ccccc3)c2n1 [Example 18] | – |
| 33 nM | CCOc1nc(C)c2nc(-c3cncc(F)c3)n(Cc3ccc(CN4C[C@@H]5C[C@H]4CN5)cc3)c2n1 [Example 123, 9-{4-[(1S,4S)-2,5-Diazabicyclo[2.2.1]hept-2-ylmethyl]benzyl}-2-ethoxy-8-(5-fluoropyridin-3-yl)-6-methyl-9H-purine] | potent inhibitory effect against TLR7 |
| 950 nM | CN(C)Cc1ccc(Cn2c(-c3cncc(F)c3)nc3c(N)nc(Cl)nc32)cc1 [Example 118] | – |
| 8900 nM | CCc1nc(N)c2nc(-c3cncc(F)c3)n(Cc3ccc(CN(C)C)cc3)c2n1 [Example 157] | – |
| 30 nM | CCN1CCC(c2ccc(Cn3c(-c4cncc(C#N)c4)nc4c(C)nc(OC)nc43)c(F)c2)CC1 [Example 289, 5-{9-[4-(1-ethylpiperidin-4-yl)-2-fluorobenzyl]-2-methoxy-6-methyl-9H-purin-8-yl}pyridine-3-carbonitrile] | potent inhibitory effect against TLR7 |
| 99 nM | CCOc1nc(C)c2nc(-c3cncc(F)c3)n(Cc3cnn(CC4CCNC4)c3)c2n1 (stereo not drawn) [Example 271] | – |
| 67 nM | COc1nc(C)c2nc(-c3cncc(C#N)c3)n(Cc3ccc(C4CCNCC4)cc3F)c2n1 [Example 343] | potent inhibitory effect against TLR7 |
| 700 nM | CCOc1nc(N)c2nc(-c3cncc(F)c3)n(Cc3ccccc3)c2n1 [Example 21] | – |
| 82 nM | CCOc1nc(C)c2nc(-c3cncc(F)c3)n(Cc3ccc(C4CCCN4C)cc3)c2n1 (stereo not drawn) [Example 170] | – |
| 900 nM | COCCOc1nc(N)c2nc(-c3cncc(F)c3)n(Cc3ccc(CN4CCOCC4)cc3)c2n1 [Example 88] | – |
| 209 nM | CCOc1nc(C)c2nc(-c3cncc(F)c3)n(Cc3ccccc3OC)c2n1 [Example 373] | – |
